Measurements taken from patent US11647776B2, “Extract, consumable product and method for enriching bioactive metabolite in an extract” (Brightseed, Inc., priority 2019, dated 2023).

Legend:
red potatoes [1] = assay: wounding combined with precursor exposure: N-trans-feruloyltyramine production in sliced red potatoes; set-up: species or system Solanum tuberosum; details: sliced red potatoes dipped in 400 μM tyramine or citric acid (pH ~4); for N-trans-feruloyltyramine production: 4 days at room temperature, water control
Description: Red potatoes were sliced (i.e., and boiled in water for 6 minutes or dipped into abiotic […]) aqueous solutions of 400 μM tyramine or citric acid (pH ˜4).
For this analysis, red potatoes were sliced to a standard thickness (¼ inch; two potatoes/time point). Subsequently, the potato slices were either boiled in water for 6 minutes, or dipped into aqueous solutions of 400 μM tyramine (as precursor) or citric acid (pH ˜4; as a preservative), or water (control). The potato slices were loosely covered to allow for air flow and incubated for 4 days at room temperature.

Solanum tuberosum = assay: wounding response of potato tubers (N-trans-feruloyltyramine production); details: wounded potatoes
Description: Thus, it was determined whether elevated levels tyramine containing hydroxycinnamic acid amides could be generated in situ by subjecting a plant to an abiotic stress, e.g., wounding. In particular, yellow tubers of Solanum tuberosum were wounded by wounding and production of N-trans-feruloyltyramine in the tuber was assessed 1, 5 and 9 days after wounding.

red potatoes [2] = assay: wounding combined with THT enzyme elicitors: N-trans-feruloyltyramine production in sliced red potatoes; set-up: species or system Solanum tuberosum; details: sliced red potatoes dipped in 1 mg/ml laminaran, 10 mg/ml inactivated cordy-gen fungi or 10 mg/ml live endomycorrhizal fungi; 4 or 8 days at room temperature; water control
Description: Red potatoes were sliced (i.e., wounded) and dipped into aqueous solutions of 10 mg/ml live endomycorrhizal fungi, 10 mg/ml inactivated cordy-gen fungi, or 1 mg/ml laminaran (polysaccharide from brown algae).
For this analysis, red potatoes were sliced to a standard thickness. Subsequently, the potato slices were dipped into solutions of 10 mg/ml live endomycorrhizal fungi, 10 mg/ml inactivated cordy-gen fungi (from Mycopia), 1 mg/ml laminaran (polysaccharide from brown algae) or water (control) The potato slices were loosely covered to allow for air flow and incubated for 4 or 8 days at room temperature.

## O=C(O)CC(O)(CC(=O)O)C(=O)O [citric acid]
Red potatoes [1]
  browning of the wounded potato slices: inhibited the browning pathway
  N-trans-feruloyltyramine production: little effect

## NCCc1ccc(O)cc1 [tyramine]
Solanum tuberosum
  effect on the wounding response: enhanced the wounding response
Red potatoes [1]
  browning of the wounded potato slices: further increased browning
  N-trans-feruloyltyramine production: could enhance

## laminaran
Red potatoes [2]
  production of N-trans-feruloyltyramine in response to wounding: substantially enhanced
